Source: US8778939B2, “Compounds” (Glaxo Group Limited, priority 2009, dated 2014)

How the values were obtained:
[1] = target: T1, 6His-Tev-LRRK2 (1326-2527) (Homo sapiens, UniProt Q5S007); assay: LRRK2 peptide substrate assay; format: biochemical; conditions: Biotin-LRRKtide peptide substrate, ATP at Km
T1 construct: A LRRK2 cDNA encoding residues 1326-2527 was received from Dundee University; made in house; host or cells: Spodoptera frugiperda (Sf9) insect cells, baculovirus
T1 sequence (Q5S007 1326-2527): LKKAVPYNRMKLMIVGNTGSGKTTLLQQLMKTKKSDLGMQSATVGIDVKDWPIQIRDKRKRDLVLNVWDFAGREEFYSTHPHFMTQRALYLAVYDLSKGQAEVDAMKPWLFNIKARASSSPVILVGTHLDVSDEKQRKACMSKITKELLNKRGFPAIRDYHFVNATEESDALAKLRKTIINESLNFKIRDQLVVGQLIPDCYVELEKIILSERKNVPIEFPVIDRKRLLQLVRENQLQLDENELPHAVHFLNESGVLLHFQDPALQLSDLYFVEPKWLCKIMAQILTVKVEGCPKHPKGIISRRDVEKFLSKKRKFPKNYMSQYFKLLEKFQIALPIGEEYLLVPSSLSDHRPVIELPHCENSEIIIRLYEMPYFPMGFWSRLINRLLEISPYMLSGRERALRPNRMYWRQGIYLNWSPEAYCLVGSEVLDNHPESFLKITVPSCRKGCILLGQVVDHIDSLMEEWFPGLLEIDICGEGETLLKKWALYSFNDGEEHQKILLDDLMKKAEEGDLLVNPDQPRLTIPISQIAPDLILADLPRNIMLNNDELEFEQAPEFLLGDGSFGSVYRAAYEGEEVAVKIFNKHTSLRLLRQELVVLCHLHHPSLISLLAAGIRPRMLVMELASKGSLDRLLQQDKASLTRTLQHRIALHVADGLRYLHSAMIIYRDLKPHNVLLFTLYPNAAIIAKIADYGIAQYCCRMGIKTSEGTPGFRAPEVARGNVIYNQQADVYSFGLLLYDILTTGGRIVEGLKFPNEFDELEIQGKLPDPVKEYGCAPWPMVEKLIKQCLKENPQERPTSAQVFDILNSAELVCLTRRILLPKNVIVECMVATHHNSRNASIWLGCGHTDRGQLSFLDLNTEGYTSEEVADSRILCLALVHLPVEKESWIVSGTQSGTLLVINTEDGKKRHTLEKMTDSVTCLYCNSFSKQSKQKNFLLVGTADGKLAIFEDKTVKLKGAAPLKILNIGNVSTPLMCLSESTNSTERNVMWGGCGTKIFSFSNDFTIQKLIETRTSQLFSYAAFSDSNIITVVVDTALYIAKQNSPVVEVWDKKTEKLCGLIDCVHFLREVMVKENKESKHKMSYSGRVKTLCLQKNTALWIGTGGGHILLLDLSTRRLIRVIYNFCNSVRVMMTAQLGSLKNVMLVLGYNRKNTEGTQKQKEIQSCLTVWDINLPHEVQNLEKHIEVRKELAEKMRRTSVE
Procedure: Compounds of formula (I) may be tested for in vitro kinase activity in accordance with the following assays, using the non natural, in vitro, substrates moesin and the Longer Biotin-LRRKtide. Moesin and a shorter version of the peptide were identified as substrates in Jaleel et al, (2007, Biochem J, 405: 307-317).
LRRK2 Peptide Substrate Assay
(§1) a) 100 nl of a 1:4 serial dilution of test compound with a top final assay concentration of 30 μM is added to certain wells in a low volume 384 well black plate. 100 nl of DMSO is used in certain wells as controls.
b) 3 μl enzyme solution (80 nM purified recombinant 6His-Tev-LRRK2 (1326-2527) in assay buffer: 50 mM Hepes (pH 7.2), 10 mM MgCl2, 150 mM NaCl, 5% glycerol, 0.0025% triton X-100 and 1 mM DTT) is added to certain wells. […] Plates are then incubated for a further 1-2 hours at room temperature (incubation time varies depending upon rate and linearity of reaction with differing enzyme batches). d) 6 μl detection solution (50 nM Streptavidin SureLight® APC (PerkinElmer), 4 nM Eu-W1024 labelled anti-rabbit IgG antibody (PerkinElmer), 1:500 dilution (dilution determined on a batch to batch basis) of Phospho-Ezrin (Thr567)/Radixin (Thr564)/Moesin (Thr558) Polyclonal Antibody (New England Biolabs) and 60 mM EDTA in buffer: 40 mM Hepes (pH 7.2), 150 mM NaCl, 0.03% BSA) is added to each well. Plates are then incubated for a further 2 hours at room temperature before reading on a suitable plate reader (Excitation 330 nm, emission 620 nm (Eu) and 665 nm (APC)). Data is analysed using ActivityBase software (IDBS). LRRK2 AlphaScreen Protein Substrate Assay

[2] = target: T1, 6His-Tev-LRRK2 (1326-2527); assay: LRRK2 AlphaScreen desensitised protein substrate assay; format: biochemical
Procedure: as §1
b) 3 μl enzyme solution (80 nM purified recombinant 6His-Tev-LRRK2 (1326-2527) in assay buffer: 50 mM Hepes (pH 7.2), 10 mM MgCl2, 150 mM NaCl, 5% glycerol, 0.0025% triton X-100 and 1 mM DTT) is added to certain wells.
Plates are then incubated for a further 1-2 hours at room temperature (incubation time varies depending upon rate and linearity of reaction with differing enzyme batches).
d) 6 μl detection solution (1:250 dilution of AlphaLisa Protein A Acceptor beads (PerkinElmer), 1:64 dilution of AlphaLisa Gluthathione Donor beads (PerkinElmer) and 1:600 dilution (dilution determined on a batch to batch basis) of Phospho-Ezrin (Thr567)/Radixin (Thr564)/Moesin (Thr558) Polyclonal Antibody (New England Biolabs) in a buffer: 50 mM Hepes (pH 7.5), 250 mM NaCl, 60 mM EDTA, 1% PEG and 0.01% Brij 35) is added to each well. Plates are then incubated for a further 2 hours at room temperature in the dark before reading on an EnVision™ plate reader with AlphaScreen HTS turbo option module and AlphaScreen settings. Data is analysed using ActivityBase software (IDBS).
LRRK2 AlphaScreen Desensitised Protein Substrate Assay
This is conducted as described for the LRRK2 alphascreen protein substrate assay, with the following differences: • 1. The concentration of ATP in the substrate solution was 2 mM. • 2. The plates were incubated for 20 minutes at room temperature following addition of the substrate solution. Pharmacological Data

[3] = read-out: pIC50 in the LRRK2 peptide substrate assay (converted)
[4] = excess of ATP present (2 mM ATP), read-out: pIC50 in the LRRK2 alphascreen desensitised protein substrate assay (converted)
[5] = mean pIC50, read-out: LRRK2 peptide substrate assay (pIC50) (converted)
[6] = mean pIC50, GST-PS-Moesin (400-577) substrate, 2 mM ATP (excess of ATP present), read-out: LRRK2 alphascreen desensitised protein substrate assay (pIC50) (converted)

| SMILES | IC50 [1, 3] [nM] | IC50 [1, 5] [nM] | IC50 [2, 4] [nM] | IC50 [2, 6] [nM] |
| --- | --- | --- | --- | --- |
| CN1CCC[C@@H]1COc1ccc(OCc2ccccc2)c(C(=O)Nc2cccnc2)c1 [Example 45, 5-({[(2R)-1-Methyl-2-pyrrolidinyl]methyl}oxy)-2-[(phenylmethyl)oxy]-N-3-pyridinylbenzamide] | ≤ 10 |  | ≤ 20000 |  |
| CN1CCC[C@H]1COc1ccc(OCc2ccccc2)c(C(=O)Nc2cccnc2)c1 [Example 47, 5-({[(2S)-1-Methyl-2-pyrrolidinyl]methyl}oxy)-2-[(phenylmethyl)oxy]-N-3-pyridinylbenzamide] | ≤ 10 |  | ≤ 20000 |  |
| O=C(Nc1cccnc1)c1cc(-c2cccnc2)ccc1OCc1ccccc1 [Example 101, 2-[(Phenylmethyl)oxy]-N,5-di-3-pyridinylbenzamide] | ≤ 10 |  | ≤ 20000 |  |
| O=C(Nc1cccnc1)c1cc(Br)ccc1OCc1cccc(F)c1 [Example 57, 5-Bromo-2-{[(3-fluorophenyl)methyl]oxy}-N-3-pyridinyl benzamide] | ≤ 100 |  | > 25100 |  |
| O=C(Nc1cccnc1)c1cc(C(=O)N2CCOCC2)ccc1OCc1ccccc1 [Example 38, 5-(4-Morpholinylcarbonyl)-2-[(phenylmethyl)oxy]-N-3-pyridinylbenzamide] | ≤ 100 | 79.4 | ≤ 20000 | 7940 |
| Cn1nccc1-c1ccc(OCc2ccc(F)cc2)c(C(=O)Nc2cccnc2)c1 [Example 95, 2-{[(4-Fluorophenyl)methyl]oxy}-5-(1-methyl-1H-pyrazol-5-yl)-N-3-pyridinylbenzamide] | ≤ 100 |  | ≤ 20000 |  |

Now from value to compound, other results behind:

| IC50 [1, 3] [nM] | IC50 [1, 5] [nM] | SMILES | IC50 [2, 4] [nM] | IC50 [2, 6] [nM] |
| --- | --- | --- | --- | --- |
| ≤ 100 | 100 | O=C(Nc1cccnc1)c1cc(CCCN2CCOCC2)ccc1OCc1ccc(F)cc1 [Example 136, 2-{[(4-Fluorophenyl)methyl]oxy}-5-[3-(4-morpholinyl)propyl]-N-3-pyridinylbenzamide] | ≤ 20000 | 398 |
| ≤ 100 |  | O=C(Nc1ccnnc1)c1cc(-c2cn[nH]c2)ccc1OCc1ccc(F)c(F)c1 [Example 108, 2-{[(3,4-Difluorophenyl)methyl]oxy}-5-(1H-pyrazol-4-yl)-N-4-pyridazinylbenzamide] | ≤ 20000 |  |
| ≤ 100 |  | O=C(Nc1cccnc1F)c1cc(C(=O)N2CCOCC2)ccc1OCc1ccc(F)cc1F [Example 125, 2-{[(2,4-Difluorophenyl)methyl]oxy)-N-(2-fluoro-3-pyridinyl)-5-(4-morpholinylcarbonyl)benzamide] | ≤ 20000 |  |
| ≤ 10 |  | Cn1cc(-c2ccc(OCc3ccc(F)cc3F)c(C(=O)Nc3cccnc3)c2)cn1 [Example 116, 2-{[(2,4-Difluorophenyl)methyl]oxy}-5-(1-methyl-1H-pyrazol-4-yl)-N-3-pyridinylbenzamide] | ≤ 20000 |  |
| ≤ 10 |  | O=C(Nc1cccnc1)c1cc(-c2ccnc(F)c2)ccc1OCc1ccccc1 [Example 104, 5-(2-Fluoro-4-pyridinyl)-2-[(phenylmethyl)oxy]-N-3-pyridinylbenzamide] | ≤ 20000 |  |
| ≤ 100 |  | Nc1cc(-c2ccc(OCc3ccccc3)c(C(=O)Nc3cccnc3)c2)ccn1 [Example 122, 5-(2-Amino-4-pyridinyl)-2-[(phenylmethyl)oxy]-N-3-pyridinylbenzamide] | ≤ 20000 |  |
| ≤ 100 |  | Cn1cc(-c2ccc(OCc3ccccc3C#N)c(C(=O)Nc3cccnc3)c2)cn1 [Example 113, 2-{[(2-Cyanophenyl)methyl]oxy}-5-(1-methyl-1H-pyrazol-4-yl)-N-3-pyridinylbenzamide] | ≤ 20000 |  |
| ≤ 100 | 12.6 | Cc1nocc1NC(=O)c1cc(-c2cnn(CCN3CCOCC3)c2)ccc1OCc1ccc(F)cc1 [Example 129, 2-([(4-Fluorophenyl)methyl]oxy)-N-(3-methyl-4-isoxazolyl)-5-{1-[2-(4-morpholinyl)ethyl]-1H-pyrazol-4-yl}benzamide] | > 25100 | > 25100 |
